In patent US20260097022A1, “COMPOUNDS AND USES THEREOF” (Integrated Biosciences, Inc., priority 2023, published 2026):

What follows are molecules tested on etoposide-treated IMR-90 cells (assay: Etoposide-induced senescence model, resazurin cell viability (screen and dose-response)). Settings: etoposide-induced senescence model; ratio of IC50 values between etoposide- and DMSO-treated IMR-90 fibroblasts.
Format: cell-based, human
Experimental: Cell culture. Human lung fibroblast (IMR-90) cells were obtained from ATCC (CCL-186) and passaged less than 10 times (less than 30 population doublings) for all experiments described in this example, with the exception of high-passage cells used in the model of replicative senescence (see the section on Replicative senescence below). Cells were cultured in growth media comprising Eagle's Minimum Essential Medium (EMEM: ATCC 30-2003) supplemented with 10% fetal bovine serum (FBS: Thermo Fisher 16140071) and 1% penicillin-streptomycin (Thermo Fisher 15070063). Cells were incubated in a humidity-controlled incubator at 37° C., with 5% CO2. Cells were detached using trypsin-EDTA (0.05%; Gibco 25300120).
Etoposide-induced senescence. IMR-90 cells were cultured as described above. At between 30 to 50% confluence, the media was replaced with complete growth media containing vehicle (0.5% dimethyl sulfoxide: DMSO, MilliporeSigma D5879) or complete growth media containing 50 μM etoposide (prepared as a 1:200 dilution of a 10 mM stock solution in DMSO; etoposide, MilliporeSigma E1383). Cells were treated for 2 days, after which the media was replaced with fresh growth media and cells were allowed to recover for 4 days. Cells were then plated as described below.
Chemical screening. For all screening experiments. 99 μL of cells were plated into each well of a 96-well clear flat-bottom, black polystyrene tissue-culture-treated plate (Corning 3904) at a density of ˜10+ cells/well. Plates were incubated overnight for adhesion. The day after plating. 1 μL of each compound, prepared as either a 1 mM stock solution in DMSO (10 μM final concentration screen) or 0.1 mM stock solution in DMSO (1 μM final concentration screen), was added to each well using an Agilent Bravo liquid handler. A built-in slow mixing step involving aspirating and dispensing was used to enhance distribution of the added compounds in solution. Cells were incubated for 3 days, after which resazurin (MilliporeSigma R^7017) was added to each well to a final concentration of 0.15 mM. After an additional 1 day of incubation, the fluorescence excitation/emission at 550/590 nm was read using a SpectraMaxR M3 plate reader and manufacturer software (SoftMax Pro R 6). Experiments were performed in biological duplicate.
Three-fold serial dilutions of compound were prepared in DMSO, then added to cell plates (final concentration of DMSO. 1%). Cell viability was then assayed as detailed above, and resazurin fluorescence values were linearly interpolated with respect to values from empty and positive control (non-treatment) wells. Experiments were performed in biological duplicate each on two independent occasions. When possible, chemical stocks from commercial suppliers were used: econazole nitrate (Cayman Chemical 20223), artenimol (Cayman Chemical 19846), and ABT-263 (Cayman Chemical 11500) were from Cayman Chemical, and dehydrodeguelin was aliquoted from the screening library.
Calculation of cellular viability values in dose-response curves. […] For each sample, the fluorescence intensity value was normalized by the mean of two untreated control values. Cellular viability values are therefore indicated as fractions of the cellular viability of untreated controls. Vehicle (1% DMSO) control values are included in each dose-response curve. Experiments were performed in biological duplicate each on two independent occasions.
Calculation of baseline cellular viability values. […] Additionally, baseline cellular viability values were calculated for untreated cells at the start of the experiment. Resazurin was added to a final concentration of 0.15 mM on the day of seeding (corresponding to day 0 in FIG. 7).
In the case of O=C(Nc1ccc2nc(SCC(=O)N3CCc4ccccc43)sc2c1)c1cccc(F)c1 [compound 31], the “Therapeutic Index (TI)” value is reported as “++ (compounds with a TI of 1 to 5 were labelled as ++)”. Cc1cccc(C(=O)Nc2ccc3nc(SCC(=O)Nc4cc(Cl)ccc4C)sc3c2)c1 [compound 70] was tested, and the “Therapeutic Index (TI)” value was “++ (compounds with a TI of 1 to 5 were labelled as ++)”. With COc1cccc(NC(=O)CSc2nc3ccc(NC(=O)c4ccccc4C)cc3s2)c1 [compound 158] the “Therapeutic Index (TI)” value was “+ (Compounds with a TI of <1 were labelled as +)”. For CC(=O)c1ccc(NC(=O)CSc2nc3ccc(NC(=O)c4ccccc4Cl)cc3s2)cc1 [compound 17], the “Therapeutic Index (TI)” value was “+++ (compounds with a TI of >5 were labeled as +++)”. For CC(=O)c1ccc(NC(=O)CSc2nc3ccc(NC(=O)c4ccccc4C)cc3s2)cc1 [compound 164], the “Therapeutic Index (TI)” value was “+ (Compounds with a TI of <1 were labelled as +)”. With Cc1ccc(C(=O)Nc2ccc3nc(SCC(=O)Nc4ccc(C(C)C)cc4)sc3c2)cc1 [compound 24] the “Therapeutic Index (TI)” value was “+++ (compounds with a TI of >5 were labeled as +++)”. O=C(CSc1nc2ccc(NC(=O)c3ccccc3F)cc2s1)NC1CC1 [compound 116] was tested, and the “Therapeutic Index (TI)” value was “++ (compounds with a TI of 1 to 5 were labelled as ++)”. With CCc1cccc(CC)c1NC(=O)CSc1nc2ccc(NC(=O)c3ccccc3)cc2s1 [compound 97] the “Therapeutic Index (TI)” value was “++ (compounds with a TI of 1 to 5 were labelled as ++)”. With Cc1ccccc1C(=O)Nc1ccc2nc(SCC(=O)Nc3ccccc3F)sc2c1 [compound 29] the “Therapeutic Index (TI)” value was “++ (compounds with a TI of 1 to 5 were labelled as ++)”. In the case of CCOc1ccccc1NC(=O)CSc1nc2ccc(NC(=O)c3ccccc3Cl)cc2s1 [compound 26], the “Therapeutic Index (TI)” value is reported as “+++ (compounds with a TI of >5 were labeled as +++)”. With COc1ccc(NC(=O)CSc2nc3ccc(NC(=O)c4ccc(OC)cc4)cc3s2)cc1 [compound 85] the “Therapeutic Index (TI)” value was “++ (compounds with a TI of 1 to 5 were labelled as ++)”. For COc1ccccc1NC(=O)CSc1nc2ccc(NC(=O)c3ccccc3C)cc2s1 [compound 163], the “Therapeutic Index (TI)” value was “+ (Compounds with a TI of <1 were labelled as +)”. With CCCCOc1ccc(NC(=O)CSc2nc3ccc(NC(=O)c4ccccc4OC)cc3s2)cc1 [compound 109] the “Therapeutic Index (TI)” value was “++ (compounds with a TI of 1 to 5 were labelled as ++)”. For CCOc1ccc(NC(=O)CSc2nc3ccc(NC(=O)c4ccccc4Cl)cc3s2)cc1 [compound 22], the “Therapeutic Index (TI)” value was “+++ (compounds with a TI of >5 were labeled as +++)”. For COc1ccc(C(=O)Nc2ccc3nc(SCC(=O)Nc4cc(C)cc(C)c4)sc3c2)cc1 [compound 103], the “Therapeutic Index (TI)” value was “++ (compounds with a TI of 1 to 5 were labelled as ++)”. With O=C(CSc1nc2ccc(NC(=O)c3ccc(F)cc3)cc2s1)Nc1ccccc1 [compound 122] the “Therapeutic Index (TI)” value was “++ (compounds with a TI of 1 to 5 were labelled as ++)”. With CC(=O)c1ccc(NC(=O)CSc2nc3ccc(NC(=O)c4ccccc4)cc3s2)cc1 [compound 157] the “Therapeutic Index (TI)” value was “+ (Compounds with a TI of <1 were labelled as +)”. With Cc1cccc(NC(=O)CSc2nc3ccc(NC(=O)c4cccc(C)c4)cc3s2)c1 [compound 136] the “Therapeutic Index (TI)” value was “++ (compounds with a TI of 1 to 5 were labelled as ++)”. With COc1ccc(C(=O)Nc2ccc3nc(SCC(=O)Nc4ccccc4C)sc3c2)cc1 [compound 60] the “Therapeutic Index (TI)” value was “++ (compounds with a TI of 1 to 5 were labelled as ++)”. With CCCCOc1ccc(NC(=O)CSc2nc3ccc(NC(=O)c4ccc(C)cc4)cc3s2)cc1 [compound 34] the “Therapeutic Index (TI)” value was “++ (compounds with a TI of 1 to 5 were labelled as ++)”. In the case of CC(=O)Nc1ccc(NC(=O)CSc2nc3ccc(NC(=O)c4ccc(C)cc4)cc3s2)cc1 [compound 133], the “Therapeutic Index (TI)” value is reported as “++ (compounds with a TI of 1 to 5 were labelled as ++)”. For CCCCOc1ccc(NC(=O)CSc2nc3ccc(NC(=O)c4cccc(C)c4)cc3s2)cc1 [compound 126], the “Therapeutic Index (TI)” value was “++ (compounds with a TI of 1 to 5 were labelled as ++)”. CC(=O)c1ccc(NC(=O)CSc2nc3ccc(NC(=O)c4cccc(C)c4)cc3s2)cc1 [compound 138] was tested, and the “Therapeutic Index (TI)” value was “++ (compounds with a TI of 1 to 5 were labelled as ++)”. In the case of O=C(CSc1nc2ccc(NC(=O)c3ccccc3Cl)cc2s1)Nc1ccccc1 [compound 96], the “Therapeutic Index (TI)” value is reported as “++ (compounds with a TI of 1 to 5 were labelled as ++)”. For COc1ccc(NC(=O)CSc2nc3ccc(NC(=O)c4ccccc4F)cc3s2)cc1 [compound 3], the “Therapeutic Index (TI)” value was “+++ (compounds with a TI of >5 were labeled as +++)”. With CCCCCCCCCCOc1ccc(C(=O)Nc2ccc3nc(SCC(=O)Nc4ccccc4)sc3c2)cc1 [compound 149] the “Therapeutic Index (TI)” value was “+ (Compounds with a TI of <1 were labelled as +)”. In the case of COc1ccc(C(=O)Nc2ccc3nc(SCC(=O)N4CCOCC4)sc3c2)cc1OC [compound 162], the “Therapeutic Index (TI)” value is reported as “+ (Compounds with a TI of <1 were labelled as +)”. CCOc1ccc(NC(=O)CSc2nc3ccc(NC(=O)c4cccc(C)c4)cc3s2)cc1 [compound 2] was tested, and the “Therapeutic Index (TI)” value was “+++ (compounds with a TI of >5 were labeled as +++)”. In the case of COc1ccc(C(=O)Nc2ccc3nc(SCC(=O)Nc4ccccc4Cl)sc3c2)cc1 [compound 63], the “Therapeutic Index (TI)” value is reported as “++ (compounds with a TI of 1 to 5 were labelled as ++)”. COc1ccc(C(=O)Nc2ccc3nc(SCC(=O)Nc4ccc(C)cc4C)sc3c2)cc1 [compound 11] was tested, and the “Therapeutic Index (TI)” value was “+++ (compounds with a TI of >5 were labeled as +++)”. With CC(C)(C)c1ccc(C(=O)Nc2ccc3nc(SCC(=O)Nc4ccccc4)sc3c2)cc1 [compound 98] the “Therapeutic Index (TI)” value was “++ (compounds with a TI of 1 to 5 were labelled as ++)”. With CC(C)c1ccc(NC(=O)CSc2nc3ccc(NC(=O)c4ccccc4)cc3s2)cc1 [compound 14] the “Therapeutic Index (TI)” value was “+++ (compounds with a TI of >5 were labeled as +++)”. In the case of CCOc1ccc(NC(=O)C(C)Sc2nc3ccc(NC(=O)c4ccc(OC)cc4)cc3s2)cc1 (stereo not drawn) [compound 41], the “Therapeutic Index (TI)” value is reported as “++ (compounds with a TI of 1 to 5 were labelled as ++)”. In the case of COc1ccc(OC)c(NC(=O)CSc2nc3ccc(NC(=O)c4ccccc4C)cc3s2)c1 [compound 16], the “Therapeutic Index (TI)” value is reported as “+++ (compounds with a TI of >5 were labeled as +++)”. In the case of Cc1cc(C)c(NC(=O)CSc2nc3ccc(NC(=O)c4ccccc4Cl)cc3s2)c(C)c1 [compound 58], the “Therapeutic Index (TI)” value is reported as “++ (compounds with a TI of 1 to 5 were labelled as ++)”. With COc1ccc(NC(=O)CSc2nc3ccc(NC(=O)c4cccc5ccccc45)cc3s2)cc1 [compound 108] the “Therapeutic Index (TI)” value was “++ (compounds with a TI of 1 to 5 were labelled as ++)”. With CCOc1ccc(C(=O)Nc2ccc3nc(SCC(=O)Nc4ccccc4C)sc3c2)cc1 [compound 35] the “Therapeutic Index (TI)” value was “++ (compounds with a TI of 1 to 5 were labelled as ++)”. For CCCCOc1ccc(C(=O)Nc2ccc3nc(SCC(=O)Nc4ccc(C(C)=O)cc4)sc3c2)cc1 [compound 78], the “Therapeutic Index (TI)” value was “++ (compounds with a TI of 1 to 5 were labelled as ++)”. With CCCCOc1ccc(C(=O)Nc2ccc3nc(SCC(=O)Nc4ccc(CC)cc4)sc3c2)cc1 [compound 124] the “Therapeutic Index (TI)” value was “++ (compounds with a TI of 1 to 5 were labelled as ++)”. With COc1ccc(C(=O)Nc2ccc3nc(SCC(=O)Nc4cc(Cl)ccc4C)sc3c2)cc1 [compound 113] the “Therapeutic Index (TI)” value was “++ (compounds with a TI of 1 to 5 were labelled as ++)”. CCc1ccc(NC(=O)CSc2nc3ccc(NC(=O)c4ccccc4OC)cc3s2)cc1 [compound 123] was tested, and the “Therapeutic Index (TI)” value was “++ (compounds with a TI of 1 to 5 were labelled as ++)”. COc1ccc(NC(=O)CSc2nc3ccc(NC(=O)c4ccccc4)cc3s2)cc1 [compound 57] was tested, and the “Therapeutic Index (TI)” value was “++ (compounds with a TI of 1 to 5 were labelled as ++)”. For O=C(CSc1nc2ccc(NC(=O)c3cccc4ccccc34)cc2s1)Nc1ccccc1F [compound 92], the “Therapeutic Index (TI)” value was “++ (compounds with a TI of 1 to 5 were labelled as ++)”. For Cc1ccccc1C(=O)Nc1ccc2nc(SCC(N)=O)sc2c1 [compound 75], the “Therapeutic Index (TI)” value was “++ (compounds with a TI of 1 to 5 were labelled as ++)”. For CCCCOc1ccc(NC(=O)CSc2nc3ccc(NC(=O)c4ccccc4Br)cc3s2)cc1 [compound 50], the “Therapeutic Index (TI)” value was “++ (compounds with a TI of 1 to 5 were labelled as ++)”.
